The values below come from the NIST ThermoML archive (doi:10.1016/j.jct.2010.01.004).

Numbers after ± are expanded uncertainties.

This data set can be described thus: activity coefficient (dimensionless); of the first substance listed, at infinite dilution; xn = mol fraction of the nth substance listed. The settings on record: Liquid, Chromatography, x1 = 0.

Take `C1CCCCC1` [cyclohexane] + CC(C)C[P+](C)(CC(C)C)CC(C)C.Cc1ccc(S(=O)(=O)[O-])cc1: the activity coefficient (298.15 K) amounted to 22.5 ± 1.5, the activity coefficient (308.15 K) is 14.5 ± 1, the activity coefficient (318.15 K) was found to be 10.5 ± 0.7 and the activity coefficient (328.15 K) came out at 7.67 ± 0.52.
As to `C#CCCCC` [1-hexyne] + CC(C)C[P+](C)(CC(C)C)CC(C)C.Cc1ccc(S(=O)(=O)[O-])cc1, the activity coefficient is 2.69 ± 0.18 (298.15 K), 2.48 ± 0.17 (308.15 K), 2.32 ± 0.16 (318.15 K) and 2.17 ± 0.15 (328.15 K).
In the case of `C=CCCCCCC` [oct-1-ene] + CC(C)C[P+](C)(CC(C)C)CC(C)C.Cc1ccc(S(=O)(=O)[O-])cc1, the activity coefficient is 16.6 ± 1.1 (298.15 K), 15 ± 1 (308.15 K), 12.2 ± 0.8 (318.15 K) and 10.8 ± 0.74 (328.15 K).
Consider `CCCCCCC` [heptane] + CC(C)C[P+](C)(CC(C)C)CC(C)C.Cc1ccc(S(=O)(=O)[O-])cc1, for which the activity coefficient (298.15 K) is 35.2 ± 2.4, the activity coefficient (308.15 K) is 26.4 ± 1.8, the activity coefficient (318.15 K) stood at 20.8 ± 1.4 and the activity coefficient (328.15 K) turned out to be 16.1 ± 1.1.
As to `C=CCCC` [1-pentene] + CC(C)C[P+](C)(CC(C)C)CC(C)C.Cc1ccc(S(=O)(=O)[O-])cc1, the activity coefficient came to 30.5 ± 2.1 (298.15 K), 20.7 ± 1.4 (308.15 K), 14.5 ± 1 (318.15 K) and 9.91 ± 0.68 (328.15 K).
`CCO` [ethanol] + CC(C)C[P+](C)(CC(C)C)CC(C)C.Cc1ccc(S(=O)(=O)[O-])cc1: the activity coefficient was 0.263 ± 0.03 (308.15 K); 0.259 ± 0.03 (318.15 K); 0.261 ± 0.03 (328.15 K); 0.262 ± 0.03 (338.15 K); 0.266 ± 0.03 (348.15 K); 0.268 ± 0.03 (358.15 K). Also, the activity coefficient (368.15 K) amounted to 0.266 ± 0.03.
On to `C=CCCCC` [hex-1-ene] + CC(C)C[P+](C)(CC(C)C)CC(C)C.Cc1ccc(S(=O)(=O)[O-])cc1, for which the activity coefficient was 23.5 ± 1.6 (298.15 K), 16.5 ± 1.1 (308.15 K), 12.4 ± 0.8 (318.15 K) and 9.35 ± 0.64 (328.15 K).
Regarding `Cc1ccccc1C` [1,2-dimethylbenzene] + CC(C)C[P+](C)(CC(C)C)CC(C)C.Cc1ccc(S(=O)(=O)[O-])cc1, the activity coefficient reads like this: (298.15 K) 2.31 ± 0.16; (308.15 K) 2.21 ± 0.15; (318.15 K) 2.18 ± 0.15; (328.15 K) 2.1 ± 0.14; (338.15 K) 2.06 ± 0.14; (348.15 K) 2.04 ± 0.14. Moreover, the activity coefficient is, setting by setting: (358.15 K) 2.03 ± 0.14; (368.15 K) 2.01 ± 0.14.
With `c1ccsc1` [thiophene] + CC(C)C[P+](C)(CC(C)C)CC(C)C.Cc1ccc(S(=O)(=O)[O-])cc1, the activity coefficient came out at 0.901 ± 0.057 (298.15 K); 0.848 ± 0.054 (308.15 K); 0.843 ± 0.054 (318.15 K); 0.818 ± 0.053 (328.15 K); 0.812 ± 0.053 (338.15 K); 0.805 ± 0.052 (348.15 K). The activity coefficient (358.15 K) came to 0.804 ± 0.052.
`C1CCCCCC1` [cycloheptane] + CC(C)C[P+](C)(CC(C)C)CC(C)C.Cc1ccc(S(=O)(=O)[O-])cc1: the activity coefficient by setting is: (298.15 K) 12.3 ± 0.8; (308.15 K) 9.79 ± 0.67; (318.15 K) 7.64 ± 0.52; (328.15 K) 6.55 ± 0.45.
With `Cc1cccc(C)c1` [1,3-dimethylbenzene] + CC(C)C[P+](C)(CC(C)C)CC(C)C.Cc1ccc(S(=O)(=O)[O-])cc1, the activity coefficient is, setting by setting: (298.15 K) 2.68 ± 0.18; (308.15 K) 2.48 ± 0.17; (318.15 K) 2.44 ± 0.17; (328.15 K) 2.33 ± 0.16; (338.15 K) 2.36 ± 0.16; (348.15 K) 2.28 ± 0.16. In addition, the activity coefficient came to 2.27 ± 0.15 (358.15 K) and 2.23 ± 0.15 (368.15 K).
In the case of `O` [water] + CC(C)C[P+](C)(CC(C)C)CC(C)C.Cc1ccc(S(=O)(=O)[O-])cc1, the activity coefficient came out at 0.585 ± 0.041 (318.15 K); 0.552 ± 0.04 (328.15 K); 0.534 ± 0.039 (338.15 K); 0.524 ± 0.039 (348.15 K); 0.492 ± 0.037 (358.15 K); 0.477 ± 0.037 (368.15 K).
On to `CCCCCC` [hexane] + CC(C)C[P+](C)(CC(C)C)CC(C)C.Cc1ccc(S(=O)(=O)[O-])cc1, for which the activity coefficient by setting is: (298.15 K) 48.8 ± 3.3; (308.15 K) 32.2 ± 2.2; (318.15 K) 23.3 ± 1.6; (328.15 K) 16.4 ± 1.1.
With `C#CCCC` [1-pentyne] + CC(C)C[P+](C)(CC(C)C)CC(C)C.Cc1ccc(S(=O)(=O)[O-])cc1, the activity coefficient runs as follows: (298.15 K) 3.01 ± 0.2; (308.15 K) 2.55 ± 0.17; (318.15 K) 2.24 ± 0.15; (328.15 K) 1.98 ± 0.13.
Turning to `COC(C)(C)C` [2-methoxy-2-methylpropane] + CC(C)C[P+](C)(CC(C)C)CC(C)C.Cc1ccc(S(=O)(=O)[O-])cc1, the activity coefficient stood at 17.1 ± 1.2 (298.15 K); 11 ± 0.8 (308.15 K); 8.26 ± 0.56 (318.15 K); 5.68 ± 0.39 (328.15 K); 5 ± 0.34 (338.15 K); 4.57 ± 0.31 (348.15 K). Moreover, the activity coefficient (358.15 K) is 4.16 ± 0.28.
With `CCCCCCCCCC` [decane] + CC(C)C[P+](C)(CC(C)C)CC(C)C.Cc1ccc(S(=O)(=O)[O-])cc1, the activity coefficient (298.15 K) was determined as 33.3 ± 2.3, the activity coefficient (308.15 K) turned out to be 29.2 ± 2, the activity coefficient (318.15 K) was 26 ± 1.8 and the activity coefficient (328.15 K) was 23.6 ± 1.6.
Take `c1ccccc1` [benzene] + CC(C)C[P+](C)(CC(C)C)CC(C)C.Cc1ccc(S(=O)(=O)[O-])cc1: the activity coefficient (298.15 K) came out at 1.53 ± 0.1; the activity coefficient (308.15 K) is 1.42 ± 0.09; the activity coefficient (318.15 K) is 1.35 ± 0.09; the activity coefficient (328.15 K) is 1.28 ± 0.08; the activity coefficient (338.15 K) was 1.25 ± 0.08; the activity coefficient (348.15 K) is 1.21 ± 0.08. Moreover, the activity coefficient is 1.2 ± 0.08 (358.15 K) and 1.18 ± 0.08 (368.15 K).
Consider `CCCO` [propan-1-ol] + CC(C)C[P+](C)(CC(C)C)CC(C)C.Cc1ccc(S(=O)(=O)[O-])cc1, for which the activity coefficient (308.15 K) came to 0.278 ± 0.03; the activity coefficient (318.15 K) was determined as 0.282 ± 0.03; the activity coefficient (328.15 K) stood at 0.28 ± 0.03; the activity coefficient (338.15 K) stood at 0.284 ± 0.03; the activity coefficient (348.15 K) was determined as 0.287 ± 0.031; the activity coefficient (358.15 K) amounted to 0.299 ± 0.031. Moreover, for the setting “368.15 K”, the activity coefficient amounted to 0.287 ± 0.031.
For the molecule `C1CCCCCCC1` [cyclooctane] + CC(C)C[P+](C)(CC(C)C)CC(C)C.Cc1ccc(S(=O)(=O)[O-])cc1, the activity coefficient is 10.5 ± 0.7 (298.15 K), 8.54 ± 0.58 (308.15 K), 7.48 ± 0.51 (318.15 K) and 6.67 ± 0.45 (328.15 K).
For the molecule `CCCCC` [pentane] + CC(C)C[P+](C)(CC(C)C)CC(C)C.Cc1ccc(S(=O)(=O)[O-])cc1, the activity coefficient by setting is: (298.15 K) 61.4 ± 4.2; (308.15 K) 41.5 ± 2.8; (318.15 K) 28.5 ± 2; (328.15 K) 18.5 ± 1.3.
The corresponding values for `C#CCCCCCC` [1-octyne] + CC(C)C[P+](C)(CC(C)C)CC(C)C.Cc1ccc(S(=O)(=O)[O-])cc1 are 3.19 ± 0.22, 3.08 ± 0.21, 3.06 ± 0.21 and 3.04 ± 0.21.
For `CCCCCO` [pentan-1-ol] + CC(C)C[P+](C)(CC(C)C)CC(C)C.Cc1ccc(S(=O)(=O)[O-])cc1, the activity coefficient is, setting by setting: (338.15 K) 0.34 ± 0.032; (348.15 K) 0.346 ± 0.032; (358.15 K) 0.354 ± 0.032; (368.15 K) 0.357 ± 0.033.
For the molecule `CCCCCCCCC` [nonane] + CC(C)C[P+](C)(CC(C)C)CC(C)C.Cc1ccc(S(=O)(=O)[O-])cc1, the activity coefficient (298.15 K) came out at 26.8 ± 1.8, the activity coefficient (308.15 K) was determined as 24.7 ± 1.7, the activity coefficient (318.15 K) is 21.6 ± 1.5 and the activity coefficient (328.15 K) amounted to 19.8 ± 1.4.
With `Cc1ccc(C)cc1` [1,4-dimethylbenzene] + CC(C)C[P+](C)(CC(C)C)CC(C)C.Cc1ccc(S(=O)(=O)[O-])cc1, the activity coefficient turned out to be 2.54 ± 0.17 (298.15 K); 2.44 ± 0.17 (308.15 K); 2.4 ± 0.16 (318.15 K); 2.23 ± 0.15 (328.15 K); 2.26 ± 0.15 (338.15 K); 2.23 ± 0.15 (348.15 K). The activity coefficient (358.15 K) is 2.24 ± 0.15 and the activity coefficient (368.15 K) worked out at 2.21 ± 0.15.
Consider `CCCCO` [butan-1-ol] + CC(C)C[P+](C)(CC(C)C)CC(C)C.Cc1ccc(S(=O)(=O)[O-])cc1, for which the activity coefficient (318.15 K) was found to be 0.322 ± 0.031; the activity coefficient (328.15 K) was 0.318 ± 0.031; the activity coefficient (338.15 K) amounted to 0.319 ± 0.031; the activity coefficient (348.15 K) amounted to 0.328 ± 0.032; the activity coefficient (358.15 K) was found to be 0.33 ± 0.032; the activity coefficient (368.15 K) was 0.323 ± 0.032.
Regarding `C1CCOC1` [tetrahydrofuran] + CC(C)C[P+](C)(CC(C)C)CC(C)C.Cc1ccc(S(=O)(=O)[O-])cc1, the activity coefficient was 1.41 ± 0.09 (298.15 K); 1.31 ± 0.09 (308.15 K); 1.22 ± 0.08 (318.15 K); 1.12 ± 0.07 (328.15 K); 1.09 ± 0.07 (338.15 K); 1.05 ± 0.07 (348.15 K). In addition, for the setting “358.15 K”, the activity coefficient came out at 1.05 ± 0.07.
Consider `C1CCCC1` [cyclopentane] + CC(C)C[P+](C)(CC(C)C)CC(C)C.Cc1ccc(S(=O)(=O)[O-])cc1, for which the activity coefficient by setting is: (298.15 K) 20.6 ± 1.4; (308.15 K) 13.5 ± 0.9; (318.15 K) 9.69 ± 0.66; (328.15 K) 6.79 ± 0.46.
The corresponding values for `CCCCCCCC` [octane] + CC(C)C[P+](C)(CC(C)C)CC(C)C.Cc1ccc(S(=O)(=O)[O-])cc1 are 30.7 ± 2.1, 25.8 ± 1.8, 20.6 ± 1.4 and 17.2 ± 1.2.
